# Data: patent US20060111271A1 (priority 2004, published 2006)
# Like-named read-outs stand apart in the source and are kept apart here.
# Key:
# anti-nicotine antibodies = assay type: binding
# [1] = five BSA digoxin immunised rabbits, cited from earlier work
# [2] = liver, cited from earlier work
# [3] = antibodies elicited by Nic-O-Su-Cholera Toxin B conjugates, relative to nicotine
smiles,measurement,setting,value
CN1C(=O)C[C@@H](C(=O)O)[C@@H]1c1cccnc1 (relative stereo) [trans-4-cotininecarboxylic acid],immunologic cross-reactivity,anti-nicotine antibodies; [3],0.19%
CN1C(=O)CC[C@H]1c1cccnc1 [cotinine],immunologic cross-reactivity,anti-nicotine antibodies; [3],1.1%
C[C@H]1O[C@@H](O[C@H]2[C@@H](O)C[C@H](O[C@H]3[C@@H](O)C[C@H](O[C@H]4CC[C@@]5(C)[C@H](CC[C@@H]6[C@@H]5C[C@@H](O)[C@]5(C)[C@@H](C7=CC(=O)OC7)CC[C@]65O)C4)O[C@@H]3C)O[C@@H]2C)C[C@H](O)[C@@H]1O [digoxin],mean serum concentration of digoxin,[1]; at one year,85 nanogram/ml
same,mean serum concentration of digoxin,[1]; initially,8200 nanogram/ml
CN1CCCC1c1cccnc1 (centres unmarked) [nicotine],nicotine transformed to nicotine N'-oxide,[2]; flavin containing monooxygenase 3,4-7%
same,"nicotine glucuronidation, share of metabolized nicotine",[2]; uridine diphosphate-glucuronosyltransferase,3-5%
O=C(O)c1cccnc1 [nicotinic acid],immunologic cross-reactivity,anti-nicotine antibodies,0.09%
c1cncc([C@@H]2CCCN2)c1 [nornicotine],immunologic cross-reactivity,anti-nicotine antibodies; [3],4%
